Values joined by “and” are separate entries in the source; they are usually repeats but may differ in a detail not shown here. Equal entries are not always repeated.
Columns and labels:
Format in all cases: cell-based, human
[1] = system: DLD-1 resistant cell line clone #58 (p97 D649D/N); experiment: GI50 fold-change, resistant clone #58 vs parental; conditions: Clone #58, DLD-1, resistance generated with compound 4, G1945G/A / D649D/N; 72 hrs
Description: (§1) Dose titration of test compounds were conducted in Hct116, DLD-1, or LoVo cell lines. In brief, cells were plated in 384-well plates and a selected candidate drug compound was added in a 10-point 2-fold serial dilution.

[2] = system: Hct116 resistant cell line clone #108 (p97 P646T); experiment: GI50 fold-change, resistant clone #108 vs parental; conditions: Clone #108, Hct116, resistance generated with compound 4, C1936A / P646T; 72 hrs
Description: (§2) Dose titration of test compounds were conducted in Hct116, DLD-1, or LoVo cell lines. In brief, cells were plated in 384-well plates and a selected candidate drug compound was added in a 10-point 2-fold serial dilution. […] Hct116 cells were plated at 50,000 cells per 15 cm dish and treated with GI50-GI90 doses of test compound for 2-4 weeks until individual colonies of cells were visible on the plate.

[3] = system: DLD-1 resistant cell line clone #87 (p97 S541P); experiment: GI50 fold-change, resistant clone #87 vs parental; conditions: Clone #87, DLD-1, resistance generated with compound 4, T1621T/C / S541P; 72 hrs
Description: as §1

[4] = system: DLD-1 resistant cell line clone #83 (p97 N660N/D); experiment: GI50 fold-change, resistant clone #83 vs parental; conditions: Clone #83, DLD-1, resistance generated with compound 4, A1978G/A / N660N/D; 72 hrs
Description: as §1

[5] = system: DLD-1 resistant cell line clone #61 (p97 I620I/L); experiment: GI50 fold-change, resistant clone #61 vs parental; conditions: Clone #61, DLD-1, resistance generated with compound 4, T1859T/C / I620I/L; 72 hrs
Description: as §1

[6] = system: DLD-1 resistant cell line clone #64 (p97 N660N/S); experiment: GI50 fold-change, resistant clone #64 vs parental; conditions: Clone #64, DLD-1, resistance generated with compound 4, A1979G/A / N660N/S; 72 hrs
Description: as §1

[7] = system: Hct116 resistant cell line clone #152 (p97 T688I); experiment: GI50 fold-change, resistant clone #152 vs parental; conditions: Clone #152, Hct116, resistance generated with compound 4, C2063T / T688I, 72 hrs
Description: as §2

[8] = system: Hct116 resistant cell line clone #1 (p97 D649N); experiment: GI50 fold-change, resistant clone #1 vs parental; conditions: Clone #1, Hct116, resistance generated with compound 2, G1945A / D649N; 72 hrs
Description: as §1

[9] = system: LoVo resistant cell line clone #221 (p97 V474V/A); experiment: GI50 fold-change, resistant clone #221 vs parental; conditions: Clone #221, LoVo, resistance generated with compound 4, T1421C/T / V474V/A; 72 hrs
Description: as §2

[10] = system: Hct116 resistant cell line clone #25 (p97 P500T); experiment: GI50 fold-change, resistant clone #25 vs parental; conditions: Clone #25, Hct116, resistance generated with compound 4, C1498A / P500T; 72 hrs
Description: as §1

[11] = system: Hct116 resistant cell line clone #117 (p97 L482I); experiment: GI50 fold-change, resistant clone #117 vs parental; conditions: Clone #117, Hct116, resistance generated with compound 4, C1444A / L482I; 72 hrs
Description: as §1

[12] = system: Hct116 resistant cell line clone #139 (p97 P472S); experiment: GI50 fold-change, resistant clone #139 vs parental; conditions: Clone #139, Hct116, resistance generated with compound 4, C1414T / P472S; 72 hrs
Description: as §1

[13] = system: Hct116 resistant cell line clone #6 (p97 A528T); experiment: GI50 fold-change, resistant clone #6 vs parental; conditions: Clone #6, Hct116, resistance generated with compound 2, G1582 / A528T; 72 hrs
Description: as §1

[14] = system: Hct116 resistant cell line clone #45 (p97 F539I); experiment: GI50 fold-change, resistant clone #45 vs parental; conditions: Clone #45, Hct116, resistance generated with compound 4, T1615A / F539I; 72 hrs
Description: as §1

[15] = system: Hct116 resistant cell line clone #30 (p97 F516L); experiment: GI50 fold-change, resistant clone #30 vs parental; conditions: Clone #30, Hct116, resistance generated with compound 4, T1546C / F516L; 72 hrs
Description: as §1

[16] = system: DLD-1 resistant cell line clone #82 (p97 A569A/T); experiment: GI50 fold-change, resistant clone #82 vs parental; conditions: Clone #82, DLD-1, resistance generated with compound 4, G1705G/A / A569A/T; 72 hrs
Description: as §1

[17] = system: Hct116 resistant cell line clone #42 (p97 P472A); experiment: GI50 fold-change, resistant clone #42 vs parental; conditions: Clone #42, Hct116, resistance generated with compound 4, C1414G / P472A; 72 hrs
Description: as §1

[18] = system: Hct116 resistant cell line clone #22 (p97 N660D); experiment: GI50 fold-change, resistant clone #22 vs parental; conditions: Clone #22, Hct116, resistance generated with compound 4, A1978G / N660D; 72 hrs
Description: as §1

[19] = system: Hct116 resistant cell line clone #180 (p97 A569T); experiment: GI50 fold-change, resistant clone #180 vs parental; conditions: Clone #180, Hct116, resistance generated with compound 4, G1705A / A569T; 72 hrs
Description: as §1

[20] = system: Hct116 resistant cell line clone #90 (p97 Q473P); experiment: GI50 fold-change, resistant clone #90 vs parental; conditions: Clone #90, Hct116, resistance generated with compound 4, A1418C / Q473P; 72 hrs
Description: as §1

[21] = system: Hct116 resistant cell line clone #33 (p97 P472L); experiment: GI50 fold-change, resistant clone #33 vs parental; conditions: Clone #33, Hct116, resistance generated with compound 4, C1415T / P472L; 72 hrs
Description: as §1

[22] = system: Hct116 resistant cell line clone #31 (p97 C535Y); experiment: GI50 fold-change, resistant clone #31 vs parental; conditions: Clone #31, Hct116, resistance generated with compound 4, G1604A / C535Y; 72 hrs
Description: as §1

[23] = system: Hct116 resistant cell line clone #29 (p97 N660K); experiment: GI50 fold-change, resistant clone #29 vs parental; conditions: Clone #29, Hct116, resistance generated with compound 4, C1980A / N660K; 72 hrs
Description: as §1

[24] = system: Hct116 resistant cell line clone #137 (p97 T475I); experiment: GI50 fold-change, resistant clone #137 vs parental; conditions: Clone #137, Hct116, resistance generated with compound 4, C1424T / T475I; 72 hrs
Description: as §1

[25] = system: Hct116 resistant cell line clone #47 (p97 E498D); experiment: GI50 fold-change, resistant clone #47 vs parental; conditions: Clone #47, Hct116, resistance generated with compound 4, G1494T / E498D; 72 hrs
Description: as §1

[26] = system: Hct116 resistant cell line clone #207 (p97 V485D); experiment: GI50 fold-change, resistant clone #207 vs parental; conditions: Clone #207, Hct116, resistance generated with compound 4, T1454A / V485D; 72 hrs
Description: as §1

[27] = system: Hct116 resistant cell line clone #27 (p97 T688A); experiment: GI50 fold-change, resistant clone #27 vs parental; conditions: Clone #27, Hct116, resistance generated with compound 4, A2062G / T688A; 72 hrs
Description: as §1

[28] = system: Hct116 resistant cell line clone #34 (p97 E470D/E); experiment: GI50 fold-change, resistant clone #34 vs parental; conditions: Clone #34, Hct116, resistance generated with compound 4, G1410T/G / E470D/E; 72 hrs
Description: as §1

| Structure (SMILES) | Fold Change in GI50 Compared to Parental Cell Line [1] [fold] | Fold Change in GI50 Compared to Parental Cell Line [2] [fold] | Fold Change in GI50 Compared to Parental Cell Line [3] [fold] | Fold Change in GI50 Compared to Parental Cell Line [4] [fold] | Fold Change in GI50 Compared to Parental Cell Line [5] [fold] | Fold Change in GI50 Compared to Parental Cell Line [6] [fold] | Fold Change in GI50 Compared to Parental Cell Line [7] [fold] | Fold Change in GI50 Compared to Parental Cell Line [9] [fold] | Fold Change in GI50 Compared to Parental Cell Line [10] [fold] | Fold Change in GI50 Compared to Parental Cell Line [11] [fold] | Fold Change in GI50 Compared to Parental Cell Line [12] [fold] | Fold Change in GI50 Compared to Parental Cell Line [14] [fold] | Fold Change in GI50 Compared to Parental Cell Line [15] [fold] | Fold Change in GI50 Compared to Parental Cell Line [16] [fold] | Fold Change in GI50 Compared to Parental Cell Line [17] [fold] | further results |
| --- | --- | --- | --- | --- | --- | --- | --- | --- | --- | --- | --- | --- | --- | --- | --- | --- |
| COc1nc2ccccc2n1-c1nc2c(c(NCc3ccccc3)n1)CCCC2 [Compound 2, N-benzyl-2-(2-methoxy-1H-1,3-benzodiazol-1-yl)-5,6,7,8-tetrahydroquinazolin-4-amine] | 1.4 | 1.3 | 1.3 | 2.6 | 1.1 | 0.6 | 2.1 | 2.2 | – | – | – | – | – | – | – | Fold Change in GI50 Compared to Parental Cell Line [8]: 4.5 fold |
| Cc1cc2c(C(N)=O)cccc2n1-c1nc2c(c(NCc3ccccc3)n1)CNCC2 [Compound 3, 1-[4-(benzylamino)-5H,6H,7H,8H-pyrido[4,3-d]pyrimidin-2-yl]-2-methyl-1H-indole-4-carboxamide] | 2.0 | 1.6 | 34.6 | 2.4 | 1.0 | 1.2 | 40.2 | 4.1 | 2.2 | 4.4 | 4.2 | 6.9 | 10.0 | 4.9 | 7.0 | Fold Change in GI50 Compared to Parental Cell Line [13]: 13.4 fold |
| Cc1cc2c(CN)cccc2n1-c1nc2c(c(NCc3ccccc3)n1)CCCC2 [Compound 6, 2-[4-(aminomethyl)-2-methyl-1H-indol-1-yl]-N-benzyl-5,6,7,8-tetrahydroquinazolin-4-amine] | 2.0 | 1.6 | 0.9 | 1.3 | 3.3 | 2.7 | 1.4 | 2.2 | 1.9 | 2.3 | 3.5 | 3.4 | 4.1 | 4.5 | 3.5 | Fold Change in GI50 Compared to Parental Cell Line [18]: 1.8 fold; Fold Change in GI50 Compared to Parental Cell Line [19]: 3.4 fold; Fold Change in GI50 Compared to Parental Cell Line [20]: 2.1 fold; Fold Change in GI50 Compared to Parental Cell Line [21]: 5.3 fold; Fold Change in GI50 Compared to Parental Cell Line [22]: 3.3 fold; Fold Change in GI50 Compared to Parental Cell Line [23]: 3.8 fold; Fold Change in GI50 Compared to Parental Cell Line [24]: 2.8 fold; Fold Change in GI50 Compared to Parental Cell Line [25]: 1.8 fold; Fold Change in GI50 Compared to Parental Cell Line [26]: 2.7 fold; Fold Change in GI50 Compared to Parental Cell Line ([7]; listed as compound 6): 1.4 fold and 1.42 fold; Fold Change in GI50 Compared to Parental Cell Line [27]: 2.3 fold; Fold Change in GI50 Compared to Parental Cell Line [28]: 2.7 fold |
